# Assays:
# [1] = molecular target: Disintegrin and metalloproteinase domain-containing protein 17 (Homo sapiens, UniProt P78536); test: TACE Assay; settings: pH 9; 37 °C
# Procedure: Then, 15ng TACE was added to buffer solution containing 140μMTACE peptide substrate at a final volume of 50 μL. After incubation for 15 min at 37°C, the reaction was stopped with 25 μL of 1% TFA. An aliquot of 25μL of internal standard solution was then added and the solution mixture was analysed by HPLC.
# [2] = molecular target: Matrix metalloproteinase-9 (Homo sapiens, UniProt P14780); test: MMP-9 Assay; settings: pH 7.5; 37 °C
# Procedure: The MMP-9 assay was performed in 50 mM Tris-HCl buffer (pH 7.5, 10mM CaCl2, 150mM NaCl, 0.05% Brij-35). […] After incubation for 25 min at 37°C, the reaction was stopped with 25 μL of 1% TFA. An aliquot of 25 μL internal standard solution was then added and the solution mixture was analysed by HPLC. […] After incubation for 30 min at 37°C, 2 μL of 3 nM MMP-9 substrate was added.
# Chain of Disintegrin and metalloproteinase domain-containing protein 17 (P78536 whole entry, the tested form may be a part): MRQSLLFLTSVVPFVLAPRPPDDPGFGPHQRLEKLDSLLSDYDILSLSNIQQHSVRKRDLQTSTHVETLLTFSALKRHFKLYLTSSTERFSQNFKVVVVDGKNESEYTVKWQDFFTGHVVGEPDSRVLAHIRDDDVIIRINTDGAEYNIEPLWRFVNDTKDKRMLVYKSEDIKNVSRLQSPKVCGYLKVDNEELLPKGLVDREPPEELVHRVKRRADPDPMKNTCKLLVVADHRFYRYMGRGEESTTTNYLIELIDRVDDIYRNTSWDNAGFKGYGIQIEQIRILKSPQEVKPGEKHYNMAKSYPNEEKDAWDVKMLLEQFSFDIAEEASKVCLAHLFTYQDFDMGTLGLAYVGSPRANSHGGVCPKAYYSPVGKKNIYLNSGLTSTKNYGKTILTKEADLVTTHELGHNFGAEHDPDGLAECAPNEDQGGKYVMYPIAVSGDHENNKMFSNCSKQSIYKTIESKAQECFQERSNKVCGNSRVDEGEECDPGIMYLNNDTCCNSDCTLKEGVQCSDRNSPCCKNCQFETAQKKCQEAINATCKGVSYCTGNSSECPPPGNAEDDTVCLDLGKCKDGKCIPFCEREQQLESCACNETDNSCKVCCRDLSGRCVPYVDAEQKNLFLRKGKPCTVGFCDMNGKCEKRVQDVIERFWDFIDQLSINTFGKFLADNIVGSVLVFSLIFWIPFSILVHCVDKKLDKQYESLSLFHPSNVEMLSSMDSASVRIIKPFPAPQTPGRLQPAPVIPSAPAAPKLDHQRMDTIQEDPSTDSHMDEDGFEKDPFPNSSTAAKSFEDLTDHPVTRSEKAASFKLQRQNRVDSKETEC
# Chain of Matrix metalloproteinase-9 (P14780 whole entry): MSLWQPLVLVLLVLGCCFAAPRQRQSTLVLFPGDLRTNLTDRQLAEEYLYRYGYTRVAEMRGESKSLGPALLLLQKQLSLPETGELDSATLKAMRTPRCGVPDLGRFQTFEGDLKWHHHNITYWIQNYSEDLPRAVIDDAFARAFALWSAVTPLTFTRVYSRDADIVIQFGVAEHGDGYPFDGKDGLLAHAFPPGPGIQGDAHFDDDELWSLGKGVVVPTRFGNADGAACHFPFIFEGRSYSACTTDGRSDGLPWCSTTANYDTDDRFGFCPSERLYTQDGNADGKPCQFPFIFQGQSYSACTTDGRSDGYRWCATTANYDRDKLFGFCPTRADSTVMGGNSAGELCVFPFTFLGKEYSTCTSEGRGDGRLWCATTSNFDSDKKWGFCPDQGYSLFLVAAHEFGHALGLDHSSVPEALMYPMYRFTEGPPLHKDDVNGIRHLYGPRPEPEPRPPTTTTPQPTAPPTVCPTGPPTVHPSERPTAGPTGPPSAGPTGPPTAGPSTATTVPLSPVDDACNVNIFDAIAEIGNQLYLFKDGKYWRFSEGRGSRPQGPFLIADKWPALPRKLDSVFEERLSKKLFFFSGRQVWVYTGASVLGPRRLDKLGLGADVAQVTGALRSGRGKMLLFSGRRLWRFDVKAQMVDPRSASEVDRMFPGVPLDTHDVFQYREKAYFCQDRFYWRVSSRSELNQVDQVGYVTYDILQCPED
IC50 [1],IC50 [2],SMILES
175 nM,537 nM,O=C(Cc1cc2ccccc2oc1=O)NO [Inhibitor A]
317 nM,,CNC(=O)[C@H](Cc1c[nH]c2ccccc12)NC(=O)[C@@H](CC(=O)NO)CC(C)C [GM6001]
